These results are taken from patent US20230416262A1, “TRPML MODULATORS” (Casma Therapeutics, Inc., priority 2020, published 2023).

Molecules are shown by their SMILES.

This test relates to THP-1 cells. Put plainly: Lamp1 lysosomal exocytosis assay. The class given is cell-based. Conditions: Homo sapiens, 55 min, 55 min incubation, top dose 20 μM. The procedure: For the Lamp1 lysosomal exocytosis assay, a human monocytic suspension cell line (THP-1) was used. Cells in culture should be used between a density of […] and 1.2e6/mL on the day of the assay. For each 96-well assay plate to be used, pellet 11e6 THP-1 cells at 330×g for 5 min in a 50 mL conical tube, aspirate media and resuspend in 22 mLs of RPMI 1640/10% FBS media for a final cell concentration of 5e5/mL. Prior to addition of cells to the assay plate, perform a 7 pt dilution curve using a top dose of compound at 2 mM and use a 3-fold serial dilution, the 8th point is DMSO only. Final top dose of compound in the assay was 20 μM. 2 μL of each serial dilution was transferred to a new 96-well v-bottom assay plate. 198 μL of cells (1e5 total cells/well) was prepared as above in each well of the assay plate and incubated at 37° C./5% CO2/95% RH for 55 min. After the 55 min incubation, cells were pelleted for 5 min at 4 C at 400×g in a tabletop centrifuge. The media was separated from the cell pellets in the plate. The pellets were washed using 200 μL ice cold buffer (PBS Ca^++/Mg^++ containing 2% final BSA and 80 μM final Dynasore). Cells were pelleted again at 400×g-5 min in a 4° C. tabletop centrifuge. Buffer was separated from cells. Each well was suspended in 75 uL Lamp1-PE antibody buffer (PBS Ca^++/Mg^++ containing 2% final BSA with 80 uM final Dynasore and 1:800 final dilution of Lamp 1-PE labeled antibody). After a 45 min antibody incubation on ice, 25 μL of sytox green was added (I drop/mL buffer), and each well was mixed and incubated for an additional 15 min on ice. After the 15 min sytox green incubation, 100 μL of ice-cold buffer (PBS Ca^++/Mg^++ containing 2% final BSA and 80 uM final Dynasore) was added and cells were pelleted for 5 min at 400×g. The buffer was removed and each sample was resuspended in 100 uL of ice-cold buffer (PBS Ca^++/Mg^++ containing 2% final BSA and 80 μM final Dynasore). FACs gating strategy: FACS analyze for sytox green (A488) and Lamp1-PE (DsRed). First gate against FSC-A/SSC-A to find non-fragmented or ‘live’ THP-1 cells. Next gate against FITC-A/FSC-A to omit sytox green positive cells. Then gate for FSC-A/FSC-H to remove any doublet cells. The last gate was a histogram for PE. The statistics for ‘count’ and ‘geometric mean fluorescence intensity’ (gWFI) for PE were repoted on the last gate.
Compounds having an activity designated as “++++” provided an exocytosis readout of ≤0.50 μM; compounds having an activity designated as “+++” provided an exocytosis readout of 0.51-1.00 μM; compounds having an activity designated as “++” provided an exocytosis readout of 1.01-5.00 μM; and compounds having an activity designated as “+” provided an exocytosis readout of ≥5.01 μM

The EC50 is the midpoint of the concentration-response curve. A low value points to higher potency in that assay. With `O=C(NCCC(F)(F)F)N1CCC2(CC1)CN(S(=O)(=O)c1ccc(C(F)F)cc1)c1ccccc12` [Compound I-214, 1-((4-(difluoromethyl)phenyl)sulfonyl)-N-(3,3,3-trifluoropropyl)spiro[indoline-3,4′-piperidine]-1′-carboxamide], the concentration giving a half-maximal response (EC50) was at least 5.01 µM.

`O=C(NCC1CCOCC1)N1CCC2(CC1)CN(S(=O)(=O)c1ccc(C(F)F)cc1)c1ccccc12` [Compound I-215, 1-((4-(difluoromethyl)phenyl)sulfonyl)-N-((tetrahydro-2H-pyran-4-yl)methyl)spiro[indoline-3,4′-piperidine]-1′-carboxamide] gave an EC50 of at least 5.01 µM.

Take `COc1ccc(NC(=O)N2CCC3(CC2)CN(S(=O)(=O)c2ccc(C(F)F)cc2)c2ccccc23)cn1` [Compound I-216, 1-((4-(difluoromethyl)phenyl)sulfonyl)-N-(6-methoxypyridin-3-yl)spiro[indoline-3,4′-piperidine]-1′-carboxamide]: the half-maximal effective concentration (EC50) is at least 5.01 µM.

Molecule `Cc1nn(C)c(C)c1NC(=O)N1CCC2(CC1)CN(S(=O)(=O)c1ccc(C(F)F)cc1)c1ccccc12` [Compound I-217, 1-((4-(difluoromethyl)phenyl)sulfonyl)-N-(1,3,5-trimethyl-1H-pyrazol-4-yl)spiro[indoline-3,4′-piperidine]-1′-carboxamide] yielded an EC50 of at least 5.01 µM.

The molecule `O=C(NC1CCC(F)(F)CC1)N1CCC2(CC1)CN(S(=O)(=O)c1ccc(C(F)F)cc1)c1ccccc12` [Compound I-218, N-(4,4-difluorocyclohexyl)-1-((4-(difluoromethyl)phenyl)sulfonyl)spiro[indoline-3,4′-piperidine]-1′-carboxamide] had an EC50 of at least 5.01 µM.

For `O=C(NC1CCS(=O)(=O)CC1)N1CCC2(CC1)CN(S(=O)(=O)c1ccc(C(F)F)cc1)c1ccccc12` [Compound I-224, 1-((4-(difluoromethyl)phenyl)sulfonyl)-N-(1,1-dioxidotetrahydro-2H-thiopyran-4-yl)spiro[indoline-3,4′-piperidine]-1′-carboxamide], the 50% effective concentration (EC50) is at least 5.01 µM.

`Cn1cc(NC(=O)N2CCC3(CC2)CN(S(=O)(=O)c2ccc(C(F)F)cc2)c2ccccc23)c(=O)n(C)c1=O` [Compound I-229, 1-((4-(difluoromethyl)phenyl)sulfonyl)-N-(1,3-dimethyl-2,4-dioxo-1,2,3,4-tetrahydropyrimidin-5-yl)spiro[indoline-3,4′-piperidine]-1′-carboxamide]: the concentration giving a half-maximal response (EC50) is at least 5.01 µM.

`O=C(NCc1ccccn1)C1CCC2(CC1)CN(S(=O)(=O)c1ccc(C(F)F)cc1)c1ccccc12` (stereo not drawn) [Compound I-231, 1′-((4-(difluoromethyl)phenyl)sulfonyl)-N-(pyridin-2-ylmethyl)spiro[cyclohexane-1,3′-indoline]-4-carboxamide]: the EC50 was at least 5.01 µM.

`O=C(NCc1cccnc1)C1CCC2(CC1)CN(S(=O)(=O)c1ccc(C(F)F)cc1)c1ccccc12` (stereo not drawn) [Compound I-232, 1′-((4-(difluoromethyl)phenyl)sulfonyl)-N-(pyridin-3-ylmethyl)spiro[cyclohexane-1,3′-indoline]-4-carboxamide]: the EC50 was at least 5.01 µM.

For `O=C(NCc1ccncc1)C1CCC2(CC1)CN(S(=O)(=O)c1ccc(C(F)F)cc1)c1ccccc12` (stereo not drawn) [Compound I-233, 1′-((4-(difluoromethyl)phenyl)sulfonyl)-N-(pyridin-4-ylmethyl)spiro[cyclohexane-1,3′-indoline]-4-carboxamide], the 50% effective concentration (EC50) was at least 5.01 µM.

With `O=C(NCC1CC1)C1CCC2(CC1)CN(S(=O)(=O)c1ccc(C(F)F)cc1)c1ccccc12` (stereo not drawn) [Compound I-236, N-(cyclopropylmethyl)-1′-((4-(difluoromethyl)phenyl)sulfonyl)spiro[cyclohexane-1,3′-indoline]-4-carboxamide], the EC50 is at least 5.01 µM.

`O=C(C1CCC2(CC1)CN(S(=O)(=O)c1ccc(C(F)F)cc1)c1ccccc12)N1CCCC1` (stereo not drawn) [Compound I-237, (1′-((4-(difluoromethyl)phenyl)sulfonyl)spiro[cyclohexane-1,3′-indolin]-4-yl)(pyrrolidin-1-yl)methanone] yielded a half-maximal effective concentration (EC50) of at least 5.01 µM.

The molecule `O=C(C1CCC2(CC1)CN(S(=O)(=O)c1ccc(C(F)F)cc1)c1ccccc12)N1CCOCC1` (stereo not drawn) [Compound I-238, (1′-((4-(difluoromethyl)phenyl)sulfonyl)spiro[cyclohexane-1,3′-indolin]-4-yl)(morpholino)methanone] came in with a 50% effective concentration (EC50) of at least 5.01 µM.

In turn, `O=C(C1CCC2(CC1)CN(S(=O)(=O)c1ccc(C(F)F)cc1)c1ccccc12)N1CCC(F)(F)CC1` (stereo not drawn) [Compound I-239, (1′-((4-(difluoromethyl)phenyl)sulfonyl)spiro[cyclohexane-1,3′-indolin]-4-yl)(4,4-difluoropiperidin-1-yl)methanone] registered an EC50 of at least 5.01 µM.

Turning to `O=C(C1CCC2(CC1)CN(S(=O)(=O)c1ccc(C(F)F)cc1)c1ccccc12)N1CCC2(CCOC2)C1` (stereo not drawn) [Compound I-240, (1′-((4-(difluoromethyl)phenyl)sulfonyl)spiro[cyclohexane-1,3′-indolin]-4-y1)(2-oxa-7-azaspiro[4.4]nonan-7-yl)methanone], the 50% effective concentration (EC50) is at least 5.01 µM.

With `CCn1cc(CNC(=O)C2CCC3(CC2)CN(S(=O)(=O)c2ccc(C(F)F)cc2)c2ccccc23)cn1` (stereo not drawn) [Compound I-241, 1′-((4-(difluoromethyl)phenyl)sulfonyl)-N-((1-ethyl-1H-pyrazol-4-yl)methyl)spiro[cyclohexane-1,3′-indoline]-4-carboxamide], the EC50 was at least 5.01 µM.

The molecule `CN(Cc1ccon1)C(=O)C1CCC2(CC1)CN(S(=O)(=O)c1ccc(C(F)F)cc1)c1ccccc12` (stereo not drawn) [Compound I-242, 1′-((4-(difluoromethyl)phenyl)sulfonyl)-N-(isoxazol-3-ylmethyl)-N-methylspiro[cyclohexane-1,3′-indoline]-4-carboxamide] showed an EC50 of at least 5.01 µM.

With `CN(C(=O)C1CCC2(CC1)CN(S(=O)(=O)c1ccc(C(F)F)cc1)c1ccccc12)c1ccnn1C` (stereo not drawn) [Compound I-243, 1′-((4-(difluoromethyl)phenyl)sulfonyl)-N-methyl-N-(1-methyl-1H-pyrazol-5-yl)spiro[cyclohexane-1,3′-indoline]-4-carboxamide], the EC50 is at least 5.01 µM.

Take `O=C(C1CCC2(CC1)CN(S(=O)(=O)c1ccc(C(F)F)cc1)c1ccccc12)N1CCC2(COC2)C1` (stereo not drawn) [Compound I-244, (1′-((4-(difluoromethyl)phenyl)sulfonyl)spiro[cyclohexane-1,3′-indolin]-4-yl)(2-oxa-6-azaspiro[3.4]octan-6-yl)methanone]: the EC50 was at least 5.01 µM.

`CN(C(=O)C1CCC2(CC1)CN(S(=O)(=O)c1ccc(C(F)F)cc1)c1ccccc12)c1nccn1C` (stereo not drawn) [Compound I-245, 1′-((4-(difluoromethyl)phenyl)sulfonyl)-N-methyl-N-(1-methyl-1H-imidazol-2-yl)spiro[cyclohexane-1,3′-indoline]-4-carboxamide] came in with a half-maximal effective concentration (EC50) of at least 5.01 µM.

As to `O=C(CCC(F)(F)F)N1CCC2(CC1)CN(S(=O)(=O)c1ccc(C(F)F)cc1)c1ccccc12` [Compound I-251, 1-(1-((4-(difluoromethyl)phenyl)sulfonyl)spiro[indoline-3,4′-piperidin]-1′-y1)-4,4,4-trifluorobutan-1-one], the EC50 lay in the range of 1.01 to 5 µM.

As to `O=C(CCC1CCCO1)N1CCC2(CC1)CN(S(=O)(=O)c1ccc(C(F)F)cc1)c1ccccc12` (stereo not drawn) [Compound I-252, 1-(1-((4-(difluoromethyl)phenyl)sulfonyl)spiro[indoline-3,4′-piperidin]-1′-yl)-3-(tetrahydrofuran-2-yl)propan-1-one], the EC50 is at least 5.01 µM.

`O=C(CCC1CCOC1)N1CCC2(CC1)CN(S(=O)(=O)c1ccc(C(F)F)cc1)c1ccccc12` (stereo not drawn) [Compound I-253, 1-(1-((4-(difluoromethyl)phenyl)sulfonyl)spiro[indoline-3,4′-piperidin]-1′-y1)-3-(tetrahydrofuran-3-yl)propan-1-one] returned a concentration for a half-maximal effect (EC50) of at least 5.01 µM.

Consider `O=C(COC1CCOC1)N1CCC2(CC1)CN(S(=O)(=O)c1ccc(C(F)F)cc1)c1ccccc12` (stereo not drawn) [Compound I-254, 1-(1-((4-(difluoromethyl)phenyl)sulfonyl)spiro[indoline-3,4′-piperidin]-1′-yl)-2-((tetrahydrofuran-3-yl)oxy)ethan-1-one], for which the half-maximal effective concentration (EC50) was at least 5.01 µM.
